We go through four compounds from PMC7073229, “Novel Quinoline Compounds Active in Cancer Cells through Coupled DNA Methyltransferase Inhibition and Degradation” (Cancers, 2020).

One assay concerns the target FGFR2 kinase (h) (Homo sapiens, UniProt P21802). Put plainly: Kinase inhibitory assay (panel). The settings on record: read-out: % inhibition at 10 µM. The class given is biochemical. On the procedure:
(§1) Experimental procedure of kinase inhibitory assays
(§2) The test compound, reference compound or water (control) were mixed with the enzyme (for the exact amount see table below) in the appropriate buffer. Thereafter, the reaction was initiated by adding the required amount of the appropriate substrate and of ATP, and the mixture is incubated at room temperature (variable reaction time, see table below). For control basal measurements, the enzyme was omitted from the reaction mixture. Following incubation, the reaction was stopped by adding 13 mM
(§3) EDTA. After 5 min, the proper antibody labelled with europium chelate was added. After 60 more min, the fluorescence transfer was measured at λex=337 nm, λem=620 nm and λem=665 nm using a microplate reader (Envision, Perkin Elmer). The enzyme activity was determined by d ividing the signal measured at 665 nm by that measured at 620 nm (ratio). The results are expressed as a percent inhibition of the control enzyme activity. The standard inhibitory reference compound is staurosporine when not differently indicated (see tabl e below), which has been tested in each experiment at several concentrations to obtain an inhibition curve from which its IC 50 value is calculated.
(§4) • Assay volume and format: 10 µL in 384-well plate
(§5) • Compound addition: [100x] solution in solvent then [5x] solution in water • Maximum tolerable DMSO concentration: 1%

The target of another assay is CHK1 (h) (Homo sapiens, UniProt O14757). Put plainly: Kinase inhibitory assay (panel). To be noted: read-out: % inhibition at 10 µM. The class given is biochemical. On the procedure:
as §1, §2, §3, §4, §5

For the next assay, the target named is T1, human DNMT1 (hDNMT1) (Homo sapiens, UniProt P26358).
T1 construct: His; made in house
T1 sequence (P26358 whole entry): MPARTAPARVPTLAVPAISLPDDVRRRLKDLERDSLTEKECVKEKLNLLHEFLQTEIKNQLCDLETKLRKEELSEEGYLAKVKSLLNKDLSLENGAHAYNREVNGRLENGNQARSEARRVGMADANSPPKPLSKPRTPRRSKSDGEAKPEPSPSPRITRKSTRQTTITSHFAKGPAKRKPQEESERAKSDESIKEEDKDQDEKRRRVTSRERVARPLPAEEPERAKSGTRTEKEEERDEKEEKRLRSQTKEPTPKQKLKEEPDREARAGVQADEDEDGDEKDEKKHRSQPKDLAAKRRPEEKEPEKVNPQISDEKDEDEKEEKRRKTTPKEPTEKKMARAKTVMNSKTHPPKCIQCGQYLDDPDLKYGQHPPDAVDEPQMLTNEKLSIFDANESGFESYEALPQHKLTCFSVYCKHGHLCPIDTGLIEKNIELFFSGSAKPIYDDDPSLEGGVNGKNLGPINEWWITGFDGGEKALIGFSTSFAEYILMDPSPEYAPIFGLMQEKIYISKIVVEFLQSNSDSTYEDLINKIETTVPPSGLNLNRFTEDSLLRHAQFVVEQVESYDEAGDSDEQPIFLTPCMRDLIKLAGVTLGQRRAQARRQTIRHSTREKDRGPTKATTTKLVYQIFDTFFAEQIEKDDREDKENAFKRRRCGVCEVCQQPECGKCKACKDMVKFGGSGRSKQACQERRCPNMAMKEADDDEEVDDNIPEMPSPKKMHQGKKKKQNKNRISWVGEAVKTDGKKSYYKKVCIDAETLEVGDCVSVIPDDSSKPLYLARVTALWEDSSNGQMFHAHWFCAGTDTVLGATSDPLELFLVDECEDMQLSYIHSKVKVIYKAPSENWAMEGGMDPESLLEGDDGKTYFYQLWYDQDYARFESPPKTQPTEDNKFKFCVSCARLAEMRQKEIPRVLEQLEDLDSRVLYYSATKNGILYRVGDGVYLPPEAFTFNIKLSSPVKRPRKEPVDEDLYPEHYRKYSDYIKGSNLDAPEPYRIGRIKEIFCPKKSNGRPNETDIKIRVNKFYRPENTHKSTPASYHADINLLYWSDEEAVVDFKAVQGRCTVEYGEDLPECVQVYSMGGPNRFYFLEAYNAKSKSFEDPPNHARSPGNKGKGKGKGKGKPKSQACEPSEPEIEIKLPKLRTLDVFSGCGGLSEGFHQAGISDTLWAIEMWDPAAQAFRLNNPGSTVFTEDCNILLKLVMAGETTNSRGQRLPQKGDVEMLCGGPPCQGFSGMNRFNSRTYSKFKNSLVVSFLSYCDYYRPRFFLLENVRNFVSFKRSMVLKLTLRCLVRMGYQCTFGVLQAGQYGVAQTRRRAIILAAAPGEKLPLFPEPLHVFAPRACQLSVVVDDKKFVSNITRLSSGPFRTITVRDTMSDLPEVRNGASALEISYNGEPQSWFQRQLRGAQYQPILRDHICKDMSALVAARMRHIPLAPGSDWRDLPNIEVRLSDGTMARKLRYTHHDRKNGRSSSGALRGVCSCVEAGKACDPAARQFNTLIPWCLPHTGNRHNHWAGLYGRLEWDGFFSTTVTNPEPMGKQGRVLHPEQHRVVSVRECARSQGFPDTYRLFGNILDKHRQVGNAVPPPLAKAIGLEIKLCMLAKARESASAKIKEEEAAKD
Put plainly: DNMT1 assay ([methyl-3H]SAM, Flashplate). It counts as biochemical. The settings on record: mean of at least two independent experiments; read-out: Enzyme Inhibition (EC50 ± SD) hDNMT1. How it is done:
His-DNMT1 (182 kDa, human) was cloned, expressed, and purified as described by Lee et al.. The DNMT1 assay was performed according to Gros et al.. […] The reaction was incubated 2 h at 37 °C, then 8 µL of the solution are transferred into a streptavidin 96-well scintillant coated Flashplate containing 190 µL of 20 mM SAH in 50 mM Tris–HCl (pH 7.4). The Flashplate is agitated for 1 h at room temperature and washed. The plate is read with TopCount (PerkinElmer). In this assay, the negative and positive controls were defined as wells without enzyme and wells with only DMSO, respectively.

Assay [1] deals with peripheral blood B lymphocyte AHH1 cells. Put plainly: Differential toxicity, antiproliferative assay. The class given is cell-based. To be noted: Homo sapiens, AHH-1; 48 h treatment; read-out: IC50 against AHH1 cells. How it is done:
U937 histiocytic lymphoma, HL60 acute promyelocytic leukemia, H1299 lung adenocarcinoma, MCF7 breast carcinoma, HT1080 fibrosarcoma, M14 melanoma, HeLa epithelial cervix carcinoma and peripheral blood B lymphocyte AHH1 human cell lines were obtained from the Deutsche Sammlung für Mikroorganismen and Zellkulturen (DSZM, Braunschweig, Germany) and were maintained in RPMI 1640 medium contained 10% fetal bovine serum (FBS), 2 mM L-glutamine, and antibiotics in a humidified atmosphere with 5% CO2 at 37 °C. […]
Then, increasing concentrations of different compounds (ranging from 0.01 to 100 μM) were added, and cell proliferation was evaluated by a MTT assay after 48 h. […] The effect of compounds was evaluated using the CellTiter-Glo luminescent cell viability assay (Promega, Madison, WI, USA) according to the manufacturer’s instructions. […] After treatments, MTT solution was added for 3 h at 0.5 mg/mL, the obtained crystals were dissolved in DMSO (Sigma-Aldrich, Milan, Italy), and the absorbance was read at a wavelength of 570 nm with reader TECAN M-200. […]
IC50 values of compounds against cellular viability were determined by using nonlinear regression fitting curves with GraphPad Prism 8. […]

Another assay addresses T2, DNMT3A protein (Homo sapiens, UniProt Q9Y6K1).
T2 construct: endogenous in cells; host or cells: HCT116
Put plainly: Western blot of DNMT3A protein level in HCT116 cells. It counts as cell-based. The settings on record: 24 h. The text has this: (§6) Cells were lysed in Laemmli buffer; subsequently the proteins were resolved by sodium dodecyl sulphate-polyacrylamide gel electrophoresis and transferred to a 0.45 µm nitrocellulose membrane (Bio-Rad Laboratories, Hercules, CA, USA). The following primary antibodies were used for immunoblotting: α-DNMT1 (Novus Biologicals, Littleton, CO, USA). α-DNMT3a (SantaCruz Bio-technologies, CA, USA) and α-GAPDH (Millipore Corp., Bedford, MA USA), used as a loading control. The immune complexes were detected with horseradish peroxidase-conjugated species-specific secondary antiserum (Bio-Rad Laboratories, Hercules, CA, USA) then by enhanced chemiluminescence reaction (Bio-Rad Laboratories, Hercules, CA, USA). Densitometric analysis of protein expression was performed by using the Fiji-Image J image processing package.
In general terms: A western blot detects proteins with antibodies after separation by electrophoresis.

For the next assay, the target named is T3, DNMT1 protein (Homo sapiens, UniProt P26358).
T3 construct: endogenous in cells; host or cells: HCT116
T3 sequence (P26358 whole entry): as above
Put plainly: Western blot of DNMT1 protein level in HCT116 cells. To be noted: HCT116, 1 µM, 24 h. It counts as cell-based.
From the text: as §6

For assay [2], the system named is methylated UCHL1 promoter (pUCHL1) in HCT116 cells. Kind of assay: UCHL1 promoter demethylation assay (EGFP induction, FACS). The settings on record: five days. It counts as cell-based, human. How it is done: The assay was performed as described in [29]. Briefly, human colon cancer HCT116 (ATCC, VA, USA) cells were grown in Dulbecco’s Modified Eagle Medium (DMEM; Euroclone, Milan, Italy) supplemented with 10% fetal bovine serum (FBS; Euroclone, Milan, Italy), 2 mM L-glutamine (Euroclone), and antibiotics (100 U/mL penicillin, 100 µg/mL streptomycin) (Euroclone). The pUMLIEP vector (composed by MetLuc-IRES-EGFP construct upon the control of the ubiquitin carboxyl-terminal hydrolase L1 (UCHL1)) was linearized and methylated by with ClaI and SssI-methylase enzymes (New England Biolabs, Milan, Italy). After, methylated pUMLIEP was transfected into HCT116 cells following the protocol described in [30]. […] On day 5, cells were observed under by a fluorescent microscope (Cytation 5 Cell Imaging Multi-Mode Reader (BioTeK Milan, Italy) and BD Accuri flow cytometers. Nuclei were counterstained with DAPI (10 µg/mL, Invitrogen, Tournai, Belgium).

T2 sequence (Q9Y6K1 whole entry, looked up): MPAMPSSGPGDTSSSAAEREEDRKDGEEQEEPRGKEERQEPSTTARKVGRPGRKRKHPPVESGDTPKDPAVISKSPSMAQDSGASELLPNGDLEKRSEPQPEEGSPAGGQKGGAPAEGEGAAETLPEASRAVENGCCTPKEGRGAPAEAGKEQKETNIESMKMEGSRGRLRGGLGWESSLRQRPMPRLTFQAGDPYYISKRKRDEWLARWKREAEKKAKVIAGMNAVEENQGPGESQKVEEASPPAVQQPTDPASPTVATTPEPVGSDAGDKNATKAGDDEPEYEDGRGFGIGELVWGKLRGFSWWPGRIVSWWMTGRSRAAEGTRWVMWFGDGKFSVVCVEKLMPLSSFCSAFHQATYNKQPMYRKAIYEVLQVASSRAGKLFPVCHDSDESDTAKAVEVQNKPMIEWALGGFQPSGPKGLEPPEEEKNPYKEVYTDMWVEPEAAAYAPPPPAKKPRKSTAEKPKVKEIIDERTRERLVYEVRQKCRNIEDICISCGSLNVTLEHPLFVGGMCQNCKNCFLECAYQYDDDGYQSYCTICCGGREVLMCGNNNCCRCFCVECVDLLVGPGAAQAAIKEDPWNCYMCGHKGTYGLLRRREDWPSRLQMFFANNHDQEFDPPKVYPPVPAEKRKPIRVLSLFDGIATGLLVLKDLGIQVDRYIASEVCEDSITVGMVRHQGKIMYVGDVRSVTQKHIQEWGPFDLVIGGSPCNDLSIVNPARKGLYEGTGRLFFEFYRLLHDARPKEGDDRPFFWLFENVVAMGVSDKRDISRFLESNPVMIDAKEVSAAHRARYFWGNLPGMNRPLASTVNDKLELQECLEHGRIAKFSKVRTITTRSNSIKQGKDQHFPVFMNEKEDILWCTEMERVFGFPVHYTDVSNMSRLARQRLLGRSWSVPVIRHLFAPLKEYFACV
Sequence of FGFR2 kinase (h) (P21802 22-821): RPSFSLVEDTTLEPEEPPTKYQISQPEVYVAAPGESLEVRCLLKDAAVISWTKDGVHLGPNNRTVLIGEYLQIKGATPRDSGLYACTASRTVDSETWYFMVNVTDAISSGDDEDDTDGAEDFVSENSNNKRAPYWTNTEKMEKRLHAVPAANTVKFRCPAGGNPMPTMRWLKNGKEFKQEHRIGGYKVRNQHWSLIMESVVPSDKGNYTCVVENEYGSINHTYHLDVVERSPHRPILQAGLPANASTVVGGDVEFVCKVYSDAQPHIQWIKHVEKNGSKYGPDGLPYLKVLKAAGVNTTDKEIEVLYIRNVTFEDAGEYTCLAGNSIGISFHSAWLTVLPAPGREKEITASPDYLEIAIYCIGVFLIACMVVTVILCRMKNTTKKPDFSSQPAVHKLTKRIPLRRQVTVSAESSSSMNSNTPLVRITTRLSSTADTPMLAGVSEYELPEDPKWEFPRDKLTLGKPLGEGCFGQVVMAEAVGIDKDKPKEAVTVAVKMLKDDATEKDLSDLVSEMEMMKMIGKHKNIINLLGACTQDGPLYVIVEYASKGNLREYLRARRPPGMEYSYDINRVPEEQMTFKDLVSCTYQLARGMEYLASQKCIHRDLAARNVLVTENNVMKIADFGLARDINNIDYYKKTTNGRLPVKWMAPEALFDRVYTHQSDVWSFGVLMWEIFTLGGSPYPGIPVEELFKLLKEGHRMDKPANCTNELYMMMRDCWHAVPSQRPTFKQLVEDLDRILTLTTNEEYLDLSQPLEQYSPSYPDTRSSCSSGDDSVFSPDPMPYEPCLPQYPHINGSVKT
Sequence of CHK1 (h) (O14757 whole entry): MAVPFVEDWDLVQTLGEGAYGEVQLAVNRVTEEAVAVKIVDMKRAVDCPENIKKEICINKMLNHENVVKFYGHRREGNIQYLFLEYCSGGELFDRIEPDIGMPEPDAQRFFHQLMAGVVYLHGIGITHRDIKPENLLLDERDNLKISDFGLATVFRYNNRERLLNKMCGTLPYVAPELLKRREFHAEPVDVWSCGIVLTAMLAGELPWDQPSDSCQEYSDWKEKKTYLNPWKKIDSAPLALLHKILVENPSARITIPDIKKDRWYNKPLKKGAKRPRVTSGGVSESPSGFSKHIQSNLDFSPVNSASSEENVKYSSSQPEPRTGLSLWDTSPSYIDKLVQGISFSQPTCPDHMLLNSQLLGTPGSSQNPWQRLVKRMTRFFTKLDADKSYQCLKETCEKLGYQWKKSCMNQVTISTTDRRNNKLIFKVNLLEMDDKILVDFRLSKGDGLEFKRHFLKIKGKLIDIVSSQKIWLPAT

The inhibition is the percentage by which the read-out fell short of the control. By EC50 is commonly meant the midpoint of the concentration-response curve. Take `O=C(Nc1ccc(Nc2ccnc3ccccc23)cc1)c1cccc(Nc2ccnc3ccccc23)c1` [Compound 2a]: the inhibition at 10 µM on FGFR2 kinase (h) amounted to 1%; at CHK1 (h), 16%. For the same compound, at human DNMT1 (hDNMT1), the EC50 was 23 ± 4 µM.

Broadly, the IC50 is the concentration that inhibits the measured activity by half. As for `O=C(Nc1cccc(Nc2ccnc3ccccc23)c1)c1cccc(Nc2ccnc3ccccc23)c1` [Compound 2b], the IC50 in assay [1] came out at 3.3 µM. Also, the “DNMT3A protein level (western blot)” value at DNMT3A protein (HCT116, 1 µM) was “decrease”. In addition, on DNMT1 protein, the “DNMT1 protein level (western blot)” value is listed as “decrease”.

Take `O=C(Nc1cccc(Nc2ccnc3ccccc23)c1)c1ccc(Nc2ccnc3ccccc23)cc1` [Compound 2c]: the “pUCHL1 demethylation, EGFP-positive cells (FACS R1)” value in assay [2] (HCT116, 0.1 µM) is 42.3%. In addition, on human DNMT1 (hDNMT1), the EC50 amounted to 22 ± 3 µM.

As for `O=C(Nc1cccc(NC(=O)c2ccc(Nc3ccnc4ccccc34)cc2)c1)OCc1ccccc1` [Compound 4c], in assay [1], the 50% inhibitory concentration (IC50) came out at 9.6 µM. In addition, the “pUCHL1 demethylation, EGFP-positive cells (FACS R1)” value in assay [2] (HCT116, 0.5 µM) was 58.7%. Besides, the “DNMT3A protein level (western blot)” value on DNMT3A protein (HCT116, 0.1 µM) is on record as “decrease”; on DNMT3A protein (HCT116, 1 µM), “decrease”. For the same compound, the “DNMT3A protein level (western blot) with bortezomib” value at DNMT3A protein (HCT116, 1 µM, co-treated with bortezomib 10 nM) was “rescued”. For the same compound, the “DNMT1 protein level (western blot)” value at DNMT1 protein is listed as “decrease”. In addition, the “DNMT1 protein level (western blot) with bortezomib” value on DNMT1 protein (co-treated with bortezomib 10 nM) was “rescued”.
